The nature of series [1]: Hydroxyl radical-scavenging activity, ESR (Fenton reaction). The protocol: Stock solutions, prepared by dissolving NK-4, NK-19, NK-53, NK-100, and NK-557 in DMSO, were respectively diluted with refined water to give concentrations of 3-folds higher than those in Table 14 and used as test sample solutions. As a positive control, a neuroprotectant, “edaravone”, commercialized as “RADICUT®” containing 3-methyl-1-phenyl-2-pyrazoline-5-one as an effective ingredient by Mitsubishi Tanabe Pharma Corporation, Osaka, Japan, was diluted with refined water to give a concentration of 3-folds higher than that in Table 14 for use. To 50 μl of refined water, 50 μl of 89 mM DMPO ([…]) commercialized by Dojindo Laboratories, Kumamoto, Japan, 50 μl of the test sample solution, and 50 μl of an aqueous solution containing 1 mM hydrogen peroxide, 1 mM FeSO4, and 1 mM DTPA, commercialized by Wako Pure Chemical Industries, Osaka, Japan, were added, mixed for 10 seconds using a vortex mixer and allowed to react in an incubator controlled at 37° for 40 seconds. After 30 seconds from completion of the reaction, the resulting reaction mixture was subjected to ESR measurement. A control solution was prepared by the same method as above except for using 50 μl of a diluted edaravone solution as a substitute for the test sample solution, and subjected to ESR measurement.
The reaction mixture for measuring hydroxyl or peroxyl radicals was poured into a flat quartz cell for ESR, set to “FREE RADICAL MONITOR JES-FR30”, an ESR apparatus commercialized by JOEL Ltd., Tokyo, Japan, and ESR was measured according to manual manner. The residual ratio of peroxyl radical (%) was determined as a relative value by defining the ESR value, obtained by using 0.1 M phosphate buffer as a substitute of the test sample solution, as 100. The results are in Tables 14 and 15. […] Therefore, the IC50 of edaravone was determined by another test using its higher concentration, and the result is also shown in Table 14. The conditions of the ESR measurement were set as follows: […]

For series [2], the target named is T1, human amyloid β peptide (Homo sapiens, UniProt P05067).
T1 construct: purchased AnaSpec Inc., CA, USA
T1 sequence (P05067 672-711): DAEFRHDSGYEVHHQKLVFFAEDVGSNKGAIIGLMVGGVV
In words: Agglutination of amyloid β peptide, thioflavine T method. It counts as biochemical. The following applies: 45 μl of 200 nM test sample solution + 15 μl amyloid β peptide solution, 37° C., six days, thioflavine T fluorescence; for inhibition at 0.2 µM: read-out: Inhibition rate (%) of agglutination of amyloid β peptide. The method, then: The filtrate was made into a test sample solution by adjusting the concentration to 200 nM using Tris-HCl buffer.
The agglutination of amyloid β peptide was measured by a method using thioflavine T (see Hilal A. Lashuel et al., Journal of Biological Chemistry, Vol. 277, No. 45, pp. 42881-42890 (2002)). Thioflavine T binds to […] structure of agglutinated amyloid β peptide and produces fluorescence. The amount of the fluorescence was determined using a fluorometric plate reader and used as an index of the agglutination of amyloid β peptide. When the agglutination of amyloid β peptide is inhibited by the test sample, fluorescence of Thioflavine T is decreased. The effects of the test samples on the agglutination of amyloid β peptide were investigated by the method. A human amyloid β peptide, having the amino acid sequence of SEQ ID NO:2 consisting of 40 amino acids, commercialized by AnaSpec Inc., CA, USA, was dissolved in sterilized distilled water to give a concentration of 400 μM for use. Test samples were diluted with Tris-HCl buffer. In a reaction vessel, 15 μl of […] admixed with 45 μl of a 200 nM test sample solution and allowed to react at 37° C. for six days. After the reaction, 50 μl of the reaction mixture was withdrawn, admixed with 450 μl of a 10 μM Thioflavine T solution, and after 30 minutes, the resulting fluorescence was measured using a fluorometer (excitation wavelength: 450 nm, […]: 482 nm). The fluorescent intensity of Thioflavine T only was regarded as 0%, and that of the solution, prepared by mixing 15 μl of a […] amyloid β peptide solution and 45 μl of Tris-HCl buffer and allowing to react at 37° C. for six days, was regarded as 100%. Inhibition rate (%) of the agglutination of amyloid β peptide was determined by the steps of measuring the relative fluorescence intensity in the case of using each test sample solution for the reaction, and subtracting the measured value from 100%.

For series [3], the system named is ICR mice injected with amyloid β fragment. In words: Novelty object recognition test, mouse injected with amyloid β fragment (Alzheimer's dementia model). The class given is in vivo. The note with it: for adverse effect / novelty object recognition test (in words): mice injected with amyloid β fragment; for adverse effect: i.p. once a day over 13 days; for novelty object recognition test (in words): vs amyloid β fragment alone; for Index for object discrimination: mouse administered with amyloid β fragment. The protocol:
One hundred of ICR mice (male, five weeks of age, body weight of 25 to 30 g, commercialized by Charles Liver Laboratories Japan Inc., Kanagawa, Japan) were randomly divided into 10 groups, each consisting 10 heads, and raised separately until the experiment was terminated. […] A micro syringe with an […] stainless needle (3 mm length) was used for injection. The injection site was determined by confirming the staining at right-and-left lateral ventricles of the frontal section, dorsal third ventricle, and ventral third ventricle by injecting an Evans' Blue solution (0.3 μg/0.3 μl) in place of the solution of amyloid β fragment.
The test, which consists of three parts of acclimation, practicing trial, and holding trial, was operated at six to eight days after administering amyloid β fragment into the subjects' ventricles. The experiment apparatus (40 cm in depth, 30 cm in width and 30 cm in height), in which the floor was paved with wood tips, was placed in a noiseless place under an illumination of about 1,000 lux. On the 6th day after the administration, a mouse was placed in the center of the apparatus without seeking object and allowed to seek freely for 10 minutes (acclimation). After 24 hours (on the 7th day after the administration), two objects (objects A and B) were placed in the apparatus at a position 10-cm apart from the lateral side, and the mouse was placed in the center of the apparatus and allowed to seek freely for 10 minutes (practicing trial). After 24 hours (on 8th day after the administration), object A (memorized object) sought by the mouse on the previous day was placed at the same position of object A as placed on the previous day, and object C (novel object) different from object B used on the previous day […] of object B as placed on the previous day, and then the mouse was placed in the center of the apparatus and allowed to seek freely for 10 minutes (holding trial). When the mouse directed its muffle close to the object within 2 cm apart from the object or allowed its muffle to contact with the object, the mouse was judged to be seeking, and the seeking time thereof was measured with a stopwatch. The object discrimination index [={(seeking time for novel object)−(seeking time for memorized object)}/{(seeking time for novel object)+(seeking time for memorized object)}] was calculated. The object discrimination index means the ratio of increase in seeking time for novel object to the total seeking time, which becomes longer when the memory of the once sought object is more strongly held and becomes shorter when the memory is more weakly held.

Setting [4] is: concentration of compound 2.5 μg/ml.
[5] abbreviates: concentration of compound 3.13 μg/ml.
Where [6] appears, read: concentration of compound 6.25 μg/ml.
The mark [7] stands for this setting: concentration of compound 12.5 μg/ml.
Where [8] appears, read: 500 μg/kg body weight i.p. once a day.

Molecules are shown by their SMILES.

Five compounds from patent publication US20120035187A1 (priority 2009, published 2012) can be followed below.

On to `CCN1C=CC(=CC=C(C=Cc2cc[n+](CC)c3ccccc23)c2cc[n+](CC)c3ccccc23)c2ccccc21.[I-].[I-]` [NK-4], for which the “IC50 (μg/ml) of hydroxyl radical-scavenging activity” value (“IC50 (μg/ml)” for short) in series [1] stood at 6.7 µg/mL. Moreover, the “Residual ratio of hydroxyl radical (%)” value in series [1] (setting [4]) is listed as 15 ± 1 %; in series [1] (setting [5]), 67 ± 1 %; in series [1] (setting [6]) it was 49 ± 2 %; in series [1] (setting [7]) it was 26 ± 1 %. In addition, in series [2], the “Inhibition rate (%) of agglutination of amyloid β peptide” value is 73%. Further, in series [3], the adverse effect entry is listed as “No adverse effect”. In addition, the “novelty object recognition test (in words)” value in series [3] (setting [8]) is “significant improvement”. For the same compound, the “Index for object discrimination” value in series [3] (dose 50 μg/kg body weight) stood at 0.15 ± 0.07; in series [3] (dose 500 μg/kg body weight), 0.41 ± 0.08.
For the compound `CCCCN1C=C/C(=C/C=C(/C=C/c2cc[n+](CCCC)c3ccccc23)c2cc[n+](CCCC)c3ccccc23)c2ccccc21` [NK-26], the adverse effect result in series [3] was “No adverse effect”. Also, the “novelty object recognition test (in words)” value in series [3] (50 μg/kg body weight i.p. once a day) is given as “significant improvement”. Further, the figures for the “Index for object discrimination” value in series [3] (dose 5 μg/kg body weight), in series [3] (dose 50 μg/kg body weight) and in series [3] (dose 500 μg/kg body weight) were 0.05 ± 0.08, 0.19 ± 0.07 and 0.11 ± 0.08, respectively.
With `CCN1/C(=C/C=C(/C=C/c2sc3ccccc3[n+]2CC)c2sc3ccccc3[n+]2CC)Sc2ccccc21.[I-].[I-]` [NK-100], in series [1], the “IC50 (μg/ml)” value turned out to be 6.6 µg/mL. In addition, the “Residual ratio of hydroxyl radical (%)” value in series [1] (setting [4]) worked out at 8 ± 0 %; in series [1] (setting [5]), 68 ± 1 %; in series [1] (setting [6]) it was 51 ± 1 %; in series [1] (setting [7]), 32 ± 1 %. Also, the inhibition at 0.2 µM in series [2] turned out to be 99%.
As to `CCCN1C=CC(=CC=C(C=Cc2cc[n+](CCC)c3ccccc23)c2cc[n+](CCC)c3ccccc23)c2ccccc21.[I-].[I-]` [NK-234], the adverse effect entry in series [3] was “No adverse effect”. The “novelty object recognition test (in words)” value in series [3] (setting [8]) is listed as “significant improvement”. The “Index for object discrimination” value in series [3] (dose 500 μg/kg body weight) is listed as 0.29 ± 0.07.
With `CC[n+]1ccccc1/C=C/c1ccc(N(C)C)cc1` [NK-557], the “IC50 (μg/ml)” value in series [1] was 6.2 µg/mL. The “Residual ratio of hydroxyl radical (%)” value in series [1] (setting [4]) is 15 ± 6 %; in series [1] (setting [5]), 71 ± 1 %; in series [1] (setting [6]) it was 50 ± 1 %; in series [1] (setting [7]), 30 ± 1 %. Moreover, the inhibition at 0.2 µM in series [2] was found to be 95%.
